Patent publication US20030220280A1, “Schwann cell bridge implants and phosphodiesterase inhibitors to stimulate CNS nerve regeneration” (priority 2002, published 2003)

Legend:
Format in all cases: in vivo, rat
[1] = tested on: rats with a complete spinal cord transection at thoracic cord segment 8; assay: BBB test of hindlimb locomotion after complete spinal cord transection with Schwann cell bridge; details: rolipram by minipump 0.07 μmol/kg/hr for two weeks, assessed weekly
Text: Schwann cells were purified in culture from adult rat sciatic nerve (according to the methods described by Morrissey, Kleitman and Bunge (1991)). The purity of the Schwann cells used for transplantation was between 95 and 98%.
For Schwann cell bridges, cells were suspended in matrigel/DMEM (30:70) and drawn into 3-8 mm long polymer guidance channels at a density of 120×10^6 cells/ml, as described by Xu et al. (1997). During implantation into adult rats (Fischer rats, Charles River Laboratories, 3-5 months old), each cut stump of the severed spinal cord was inserted 1 mm into the channel. Sometimes the Schwann cell cable is transplanted without the guidance channel. Either method, with or without the channel, is readily accomplished by persons who have performed this procedure a number of times and so have gained adequate expertise to accomplish this.
Spinal cords of adult rats were completely transected by surgery at the T8 cord level and the next caudal segment was removed. At the time of transection, a Schwann cell bridge was implanted at the injury site, 50 mM db-cAMP was injected (0.2 μl) or infused (5 μl) into the proximal and distal stump of the lesion and rolipram was delivered subcutaneously via minipump at 0.07 μmol/kg/hr for two weeks. […] Animals were assessed on a weekly basis for hindlimb locomotion, a measure of motor recovery, using the BBB test. […]

[2] = tested on: rats with a moderate contusion injury at thoracic cord segment 8; assay: BBB test of hindlimb locomotion after moderate contusion injury with Schwann cell injection; details: FIG. 3, tested weekly
Procedure: FIG. 3 compares the effects over time of db-cAMP injection and rolipram on BBB scores of rats receiving Schwann cell transplantation after receiving moderate contusion injury to the spinal cord by weight drop (NYU impactor, 12.5 mm height). Each treatment used 4 injection sites, 2-3 mm rostral and caudal to the injury site and on either side of the midline. Diamonds: 2×10^6 Schwann cells were injected into the injury site with saline injection one week post-injury; squares: 2×10^6 Schwann cells with 0.2 μL×1 mM db-cAMP (four injections) one week postinjury; triangles: 2×10^6 Schwann cells with 0.2 μL×50 mM db-cAMP (four injections) one week post-injury; crosses: 2×10^6 Schwann cells with 0.2 μL×50 mM […] (four injections) one day post-injury; circles: animals received rolipram by minipump starting within 30 minutes of the injury (0.07 μmol/kg/hr for 2 weeks after injury) and 1 week later Schwann cells with 0.2 μL×50 mM db-cAMP (four injections).
(§1) Adult rats (Fischer rats, Charles River Laboratories, 3-5 months old) were injured in the thoracic level of the spinal cord with the NYU weight drop device (NYU impactor) as described in Gruner (1992), and rolipram (0.07 μmol/kg/hr) was administered for two weeks. […]

[3] = tested on: rats with a moderate contusion injury at thoracic cord segment 8; assay: Gridwalk test for fine locomotor performance after moderate contusion injury; details: FIG. 4; 8 weeks after moderate contusion; 1 m gridwalk, maximum 20 errors
Text: FIG. 4 compares footfall errors in a gridwalking analysis 8 weeks after a moderate contusion injury by weight drop (NYU impactor, 12.5 mm height) followed by db-cAMP administration plus Schwann cell transplantation with or without rolipram. Each treatment used 4 injection sites, 2-3 mm rostral and caudal to the injury site and on either side of the midline. A. Non-injured control; B. 1 week post-injury 2×10^6 Schwann cells injected into the injury site with saline; C. 1 week post-injury 2×10^6 Schwann cells injected with 4×0.2 μL×1 mM db-cAMP; D. 1 week post-injury 2×10^6 Schwann cells with 4×0.2 μL×50 mM db-cAMP; E. 1 day post-injury 2×10^6 Schwann cells with 4×0.2 μL×50 mM db-cAMP; F. animals received rolipram by minipump starting within 30 minutes of the injury (0.07 μmol/kg/hr for 2 weeks after injury) and 1 week later 2×10^6 Schwann cells with 4×0.2 μL×50 mM db-cAMP.
as §1
The number of footfall errors that the animal makes is recorded (maximum is 20, 1 per leg per space between each bar) with higher scores indicating a poor ability to perform the tasks.

[4] = tested on: rats with a moderate contusion injury at thoracic cord segment 8; assay: Footprint analysis after moderate contusion injury; details: FIGS. 5-7; 8 weeks after moderate contusion; conditioned locomotion
Procedure: FIG. 5 compares stride length in a footprint analysis conducted 8 weeks after a moderate contusion injury by weight drop followed by db-cAMP administration plus Schwann cell transplantation with or without rolipram. Each treatment used 4 injection sites, 2-3 mm rostral and caudal to the injury site and on either side of the midline. A. Non-injured control; B. 1 week post-injury 2×10^6 Schwann cells injected into the injury site with saline; C. […]
FIGS. 5, 6 and 7 illustrate the locomotor patterns of injured rats that received various treatments, tested by inking both the fore- and hind-paws (different colors), allowing them to walk 1 m on an enclosed, flat runway and then analyzing the footprints. Recorded parameters from 8 consecutive steps included the animal's stride length (measured between the central pads of two consecutive prints on each side of the animal), base of support (determined by measuring the distance between the central pads of the hindpaws), and hindfoot outward rotation. […]

Structure (SMILES): CCCC(=O)Nc1ncnc2c1ncn2[C@@H]1O[C@@H]2COP(=O)(O)O[C@H]2[C@H]1OC(=O)CCC [db-cAMP, dibutyryl-cAMP]
- hindlimb locomotion (BBB test) ([1]; FIG. 1, db-cAMP injected (0.2 μl) into both stumps): not observed
- hindlimb locomotion (BBB test) ([1]; FIG. 2, db-cAMP infused (5 μl) into both stumps): not observed
- hindlimb locomotion (BBB test) [2]: not observed
- ability to perform fine motor tasks (footfall errors on gridwalk) [3]: exhibited many more errors
- outward foot rotation in footprint analysis [4]: did not exhibit a similar level of recovery
- trunk stability (base of support) in footprint analysis [4]: did not exhibit a similar level of recovery
